Eight compounds from ChEMBL document CHEMBL1201862, “PubChem BioAssay data set” (2004) can be followed below.

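1) Cells in 96-well plates. 2) Compound, 48 h, 5 concentrations. 3) Linear interpolation between surrounding doses. 4) Unreached endpoint = highest concentration. GI50 = concentration required for 50% inhibition of growth.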 The source made the active and inactive calls. Cut-off read from the data, not from the text of the source: active = GI50 up to about 1.1 µM and inactive = higher.

Common to all, as to assay: DTP human tumour cell line panel, 48 h
The test system of assay [1] is PC-3.
Assay [2] concerns HOP-62.
The subject of assay [3] is SW-620.
For assay [4], the system named is SF-268.
In assay [5] the test system is A498.
Assay [6] relates to RPMI-8226.
Assay [7] deals with MDA-MB-435.
The test system of assay [8] is HL-60.
For assay [9], the system named is KM12.
The test system of assay [10] is OVCAR-3.
The test system of assay [11] is K562.
Assay [12] deals with ACHN.
Assay [13] deals with DU-145.
In assay [14] the test system is COLO 205.
The test system of assay [15] is IGROV-1.
Assay [16] relates to HCT-15.
In assay [17] the test system is SF-295.
The test system of assay [18] is NCI-H460.
The test system of assay [19] is SK-MEL-5.
For assay [20], the system named is HT-29.

`COc1cc2c(cc1OC)C1Cc3ccccc3CCN1CC2` (stereo not given): the GI50 was 62.1 µM (inactive) in assay [1]; > 100 µM (inactive) in [2]; > 100 µM (inactive) in assay [3]; > 100 µM (inactive) in assay [4]; > 100 µM (inactive) in assay [5]; > 100 µM (inactive) in [6]. Moreover, the GI50 is > 100 µM (inactive) in assay [7]; > 100 µM (inactive) in assay [8]; > 100 µM (inactive) in assay [9]; > 100 µM (inactive) in assay [10]; 62.1 µM (inactive) in [11]; > 100 µM (inactive) in assay [12]. Also, the GI50 in assay [13] is > 100 µM (inactive); in [14] it was 64.4 µM (inactive); in assay [15], > 100 µM (inactive); in [16], more than 100 µM; in assay [17] it was 81.1 µM (inactive); in assay [18] it was > 100 µM (inactive). Moreover, the GI50 in assay [19] was 58.1 µM (inactive); in [20], 48.1 µM (inactive).
On to `Oc1ccccc1C(Sc1nc2ccccc2s1)Sc1nc2ccccc2s1`, for which the GI50 in [1] was 67.1 µM (inactive); in assay [2], > 100 µM (inactive); in [3], > 100 µM (inactive); in assay [4] it was 71.6 µM (inactive); in assay [5] it was > 100 µM (inactive); in assay [6], 32.6 µM (inactive). Also, the GI50 is 73.5 µM (inactive) in assay [7]; 37.1 µM (inactive) in [8]; 89.1 µM (inactive) in assay [9]; 31.3 µM (inactive) in assay [10]; 56.2 µM (inactive) in assay [11]; > 100 µM (inactive) in assay [12]. For the same compound, the GI50 was 24.2 µM (inactive) in assay [13]; 52.4 µM (inactive) in [14]; 29.9 µM (inactive) in assay [15]; 51.3 µM in [16]; 41.6 µM (inactive) in assay [17]; > 100 µM (inactive) in assay [18]. In addition, the GI50 is 44 µM (inactive) in assay [19] and > 100 µM (inactive) in assay [20].
For the compound `COC(=O)/C=C1\CCCN1CCc1cc2c(cc1CC#N)OCO2`, the GI50 in assay [1] is > 100 µM (inactive); in assay [2], 52.4 µM (inactive); in assay [3] it was 49.7 µM (inactive); in [4], > 100 µM (inactive); in assay [5] it was 32.7 µM (inactive); in assay [6], 37 µM (inactive). The GI50 in [7] is 17.3 µM (inactive); in [8], 40.7 µM (inactive); in assay [9] it was 30.7 µM (inactive); in assay [10], 22.6 µM (inactive); in assay [11] it was 49.4 µM (inactive); in assay [12], > 100 µM (inactive). For the same compound, the GI50 in [13] was 80.4 µM (inactive); in [14], 35.2 µM (inactive); in [15], > 100 µM (inactive); in assay [16] it was 43.2 µM; in assay [17] it was 38.5 µM (inactive); in [18] it was 36 µM (inactive). Moreover, the GI50 in [19] was 25.6 µM (inactive); in assay [20], 32.2 µM (inactive).
As to `O=C(O)CC(Nc1ccccc1)C(=O)O` (stereo not given), the GI50 in [1], in assay [2], in [3], in assay [4], in [5] and in assay [6] was > 100 µM (inactive) in each case. Moreover, the GI50 in assay [7], in [8], in assay [9], in [10], in [11] and in assay [12] was > 100 µM (inactive) each time. Also, the GI50 was > 100 µM (inactive) in assay [13]; > 100 µM (inactive) in assay [14]; > 100 µM (inactive) in assay [15]; more than 100 µM in assay [16]; > 100 µM (inactive) in assay [17]; > 100 µM (inactive) in assay [18]. The GI50 in assay [19] and in assay [20] was > 100 µM (inactive) throughout.
For `C=C1c2nc3ccccc3n2C=C(c2ccc(C)cc2)N1c1ccccc1`, the GI50 was 2.75 µM (inactive) in assay [1]; 6.49 µM (inactive) in [2]; 1.67 µM (inactive) in assay [3]; 12.9 µM (inactive) in assay [4]; 4.53 µM (inactive) in assay [5]; 2.3 µM (inactive) in assay [6]. Also, the GI50 in assay [7] was 0.439 µM (active); in assay [8] it was 1.85 µM (inactive); in assay [9], 1.1 µM (active); in assay [10], 2.38 µM (inactive); in [11], 1.11 µM (active); in [12] it was 15.1 µM (inactive). Further, the GI50 in [13] is 3.9 µM (inactive); in assay [14] it was 3.04 µM (inactive); in [15], 3.33 µM (inactive); in [16], 1.47 µM; in [17] it was 1.88 µM (inactive); in assay [18] it was 2.88 µM (inactive). The GI50 in assay [19] was 2.13 µM (inactive); in [20] it was 1.61 µM (inactive).
For the compound `COc1ccc(C2=Nc3cc(C)c(C)cc3NC(c3ccccc3)C2)cc1` (stereo not given), the GI50 in assay [1] is > 100 µM (inactive); in assay [2], > 100 µM (inactive); in assay [3], > 100 µM (inactive); in assay [4] it was > 100 µM (inactive); in [5], > 100 µM (inactive); in assay [6], 15.9 µM (inactive). Further, the GI50 in assay [7] was 50.2 µM (inactive); in assay [8] it was 18.7 µM (inactive); in assay [9], > 100 µM (inactive); in assay [10] it was > 100 µM (inactive); in assay [11], 21.9 µM (inactive); in assay [12], > 100 µM (inactive). In addition, the GI50 in [13] is > 100 µM (inactive); in assay [14], 17.7 µM (inactive); in [15], > 100 µM (inactive); in assay [16], 41.4 µM; in [17], > 100 µM (inactive); in [18], 46.2 µM (inactive). Also, the GI50 in [19] is 29.6 µM (inactive); in assay [20], 20.1 µM (inactive).
On to `CCN(CC)C(=O)CCNC(C)Cc1c[nH]c2ccccc12` (stereo not given), for which the GI50 in assay [1], in [2], in assay [3], in [4], in [5] and in assay [6] was > 100 µM (inactive) throughout. Moreover, the GI50 in assay [7], in [8], in assay [9], in assay [10], in assay [11] and in assay [12] was > 100 µM (inactive) in each case. The GI50 was > 100 µM (inactive) in assay [13]; > 100 µM (inactive) in assay [14]; > 100 µM (inactive) in assay [15]; more than 100 µM in assay [16]; > 100 µM (inactive) in assay [17]; > 100 µM (inactive) in assay [18]. Moreover, the GI50 in assay [19] and in assay [20] was > 100 µM (inactive) throughout.
Take `COC(=O)C1(C)CCc2c(ccc3ccccc23)C1=O` (stereo not given): the GI50 was 40.9 µM (inactive) in assay [1]; 78.7 µM (inactive) in [2]; 39 µM (inactive) in assay [3]; 32.1 µM (inactive) in [4]; 32.7 µM (inactive) in [5]; 23.2 µM (inactive) in [6]. Moreover, the GI50 in assay [7] is 34.4 µM (inactive); in [8], 35.9 µM (inactive); in [9], 25.8 µM (inactive); in assay [10], 30.1 µM (inactive); in [11], 52.4 µM (inactive); in assay [12] it was 55.1 µM (inactive). Further, the GI50 was 51.9 µM (inactive) in [13]; 21.3 µM (inactive) in [14]; 26.5 µM (inactive) in assay [15]; 34.5 µM in [16]; 39.7 µM (inactive) in assay [17]; 40.5 µM (inactive) in [18]. In addition, the figures for the GI50 in assay [19] and in assay [20] were 18.3 µM (inactive) and 40.2 µM (inactive), respectively.
